Assay results published in paper PMC8061081 (Fitoterapia, 2021).

These compounds were tested against T1, SARS-CoV-2 3CL^pro (Severe acute respiratory syndrome coronavirus 2, UniProt P0DTD1) (assay: biochemical). Settings: not given.
For `COc1ccc(-c2cc(=O)c3c(O)cc(O)c(-c4cc(-c5cc(=O)c6c(O)cc(O)cc6o5)ccc4OC)c3o2)cc1` [isoginkgetin], the IC50 was 2.33 ± 0.46 µM.
`C[C@@H]1O[C@@H](Oc2c(-c3ccc(O)c(O)c3)oc3cc(O)cc(O)c3c2=O)[C@H](O)[C@H](O)[C@H]1O` [quercitrin] was tested, and the IC50 was > 100 µM.
`O=c1cc(-c2ccc(O)c(-c3c(O)cc(O)c4c(=O)cc(-c5ccc(O)cc5)oc34)c2)oc2cc(O)cc(O)c12` [amentoflavone] gave an IC50 of 8.65 ± 3.72 µM.
`COc1ccc(-c2cc(=O)c3c(O)cc(O)cc3o2)cc1-c1c(O)cc(O)c2c(=O)cc(-c3ccc(O)cc3)oc12` [bilobetin] gave an IC50 of 11.2 ± 2.41 µM.
With `CC(C)(C)[C@]1(O)CC2OC(=O)CC23C(=O)OC2OC(=O)[C@H](O)C231` (some centres unmarked) [bilobalide] the IC50 was > 100 µM.
In the case of `O=c1c(O)c(-c2ccc(O)cc2)oc2cc(O)cc(O)c12` [kaempferol], the IC50 is reported as > 100 µM.
For `COc1cc(-c2oc3cc(O)cc(O)c3c(=O)c2O)ccc1O` [isorhamnetin], the IC50 was 31.6 ± 16.6 µM.
`COc1cc(O)c2c(=O)cc(-c3ccc(OC)c(-c4c(O)cc(O)c5c(=O)cc(-c6ccc(O)cc6)oc45)c3)oc2c1` [ginkgetin] showed an IC50 of 2.98 ± 0.86 µM.
`C[C@@H]1C(=O)O[C@H]2C[C@@]34[C@H]5C[C@@H](C(C)(C)C)[C@]36[C@@H](OC(=O)[C@@H]6O)O[C@@]4(C(=O)O5)[C@]21O` [ginkgolide A] was tested, and the IC50 was > 100 µM.
`COc1cc(O)c2c(=O)cc(-c3ccc(O)cc3)oc2c1` [genkwanin] showed an IC50 of 10.6 ± 1.89 µM.

Same assay, conditions: 3CLpro 4 μg/mL, preincubation 37 °C 40 min, substrate 20 μM, PBS pH 7.4
`COc1ccc(-c2cc(=O)c3c(O)cc(O)c(-c4cc(-c5cc(=O)c6c(O)cc(OC)cc6o5)ccc4OC)c3o2)cc1` [sciadopitysin] showed an IC50 of 1.09 ± 0.19 µM.

Same assay, conditions: pH 7.4
`CCCCCCCCCCCCCc1cccc(O)c1C(=O)O` [GA C13:0] was tested, and the IC50 was 3.57 ± 0.9 µM.
Work on `CCCCCC/C=C\CCCCCCCCCc1cccc(O)c1C(=O)O` [GA C17:1] yielded an IC50 of 1.19 ± 0.15 µM.
For `CCCCCC/C=C\CCCCCCCc1cccc(O)c1C(=O)O` [GA C15:1], the IC50 was 3.45 ± 0.78 µM.

What follows are compounds tested against T1, SARS-CoV-2 3CL^pro (assay: Inhibition kinetics, determination of inhibition constants). Settings: inhibition kinetic plots and Lineweaver-Burk plots.
Format: biochemical
With `COc1ccc(-c2cc(=O)c3c(O)cc(O)c(-c4cc(-c5cc(=O)c6c(O)cc(OC)cc6o5)ccc4OC)c3o2)cc1` [sciadopitysin] the Inhibition mode was “reversible and mixed-inhibition”.
With `CCCCCCCCCCCCCCCc1cccc(O)c1C(=O)O` [GA C15:0] the Inhibition mode was “reversible and mixed-inhibition”.
In the case of `CCCCCC/C=C\CCCCCCCCCc1cccc(O)c1C(=O)O` [GA C17:1], the Inhibition mode is reported as “reversible and mixed-inhibition”.
